Experimental data taken from the supplement of paper PMC8617591.

Key:
[1] = test system: Mycobacterium tuberculosis Erdman (autoluminescent); assay: total FIC90 (Loewe) at 90% inhibition, three-drug combination (log2); higher = more antagonistic
Description: (§1)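 DiaMOND equipotent three-drug combination dose responses (10 doses, 1.5- or 2-fold spacing, centred on IC90) against autoluminescent M. tuberculosis Erdman in 8 in vitro models. Read-out is OD600, or luminescence for the intracellular and dormancy models, normalised to untreated wells. Hill-fit Einf, AUC25 and GRinf are potency metrics; FIC50 and FIC90 are total Loewe fractional inhibitory concentrations as log2 (negative = synergy).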

[2] = test system: Mycobacterium tuberculosis Erdman (autoluminescent); assay: Einf, fitted maximum growth inhibition of three-drug combination (fraction); higher = stronger maximal inhibition
Description: as §1

[3] = test system: Mycobacterium tuberculosis Erdman (autoluminescent); assay: AUC25, normalised area under dose response up to IC25 (three-drug combination) (fraction (0-1)); higher = more potent at low dose
Description: as §1

[4] = test system: Mycobacterium tuberculosis Erdman (autoluminescent); assay: total FIC50 (Loewe) at 50% inhibition, three-drug combination (log2); higher = more antagonistic
Description: as §1

[5] = test system: Mycobacterium tuberculosis Erdman (autoluminescent); assay: GRinf, maximum normalised growth rate inhibition (three-drug combination) (unitless (-1 to 1)); higher = less effect (negative = killing)
Description: as §1

CC[C@@H](CO)NCCN[C@@H](CC)CO [ethambutol] + NC(=O)c1cnccn1 [pyrazinamide] + CO[C@H]1/C=C/O[C@@]2(C)Oc3c(C)c(O)c4c(O)c(c(/C=N/N5CCN(C)CC5)c(O)c4c3C2=O)NC(=O)/C(C)=C\C=C\[C@H](C)[C@H](O)[C@@H](C)[C@@H](O)[C@@H](C)[C@H](OC(C)=O)[C@@H]1C [rifampicin]
Conditions	AUC25, [3]	Einf, [2]	GRinf, [5]	total FIC50, [4]	total FIC90, [1]
in vitro model: acidic pH 5.7, time point: constant (~7 days, model-specific)	0.0703	0.91	-0.349	-0.177	–
in vitro model: acidic pH 5.7, time point: terminal (~4-5 doublings, model-specific)	0.0348	0.982	-0.218	0.428	-0.924
in vitro model: intracellular J774, time point: constant = terminal	–	0.966	-0.396	–	-2.06

Conditions	AUC25, [3]	Einf, [2]	GRinf, [5]	total FIC50, [4]	total FIC90, [1]
in vitro model: butyrate, time point: constant (~7 days, model-specific)	0.0895	0.919	0.0103	0.151	–
in vitro model: butyrate, time point: terminal (~4-5 doublings, model-specific)	0.0793	0.964	0.024	0.114	-0.38
in vitro model: cholesterol 0.05 mM, time point: constant (~7 days, model-specific)	0.089	0.596	0.0152	–	–
in vitro model: cholesterol 0.05 mM, time point: terminal (~4-5 doublings, model-specific)	0.105	0.954	-0.297	1.25	–
in vitro model: cholesterol-high 0.2 mM, time point: constant (~7 days, model-specific)	0.0452	0.964	-0.34	1.12	–
in vitro model: cholesterol-high 0.2 mM, time point: terminal (~4-5 doublings, model-specific)	0.043	0.995	-0.69	1.15	0.828
in vitro model: dormancy (butyrate + nitrate, low O2), time point: constant (~7 days, model-specific)	0.134	0.906	0.291	-1.12	–
in vitro model: dormancy (butyrate + nitrate, low O2), time point: terminal (~4-5 doublings, model-specific)	0.0829	0.989	-0.155	-0.532	0.414
in vitro model: standard 7H9 glycerol, time point: constant = terminal	0.0436	0.897	0.134	0.0958	–
in vitro model: valerate, time point: constant (~7 days, model-specific)	0.0382	0.854	0.143	0.23	–
in vitro model: valerate, time point: terminal (~4-5 doublings, model-specific)	0.0278	0.92	0.0943	0.205	-0.873

CC[C@@H](CO)NCCN[C@@H](CC)CO [ethambutol] + NNC(=O)c1ccncc1 [isoniazid] + CC(=O)NC[C@H]1CN(c2ccc(N3CCOCC3)c(F)c2)C(=O)O1 [linezolid]
Conditions	AUC25, [3]	Einf, [2]	GRinf, [5]	total FIC50, [4]	total FIC90, [1]
in vitro model: acidic pH 5.7, time point: constant (~7 days, model-specific)	0.108	0.831	-0.311	0.672	–
in vitro model: acidic pH 5.7, time point: terminal (~4-5 doublings, model-specific)	0.0511	0.939	-0.218	1.64	0.241
in vitro model: intracellular J774, time point: constant = terminal	–	0.958	-0.189	–	-0.0766

Conditions	AUC25, [3]	Einf, [2]	GRinf, [5]	total FIC50, [4]	total FIC90, [1]
in vitro model: butyrate, time point: constant (~7 days, model-specific)	0.101	0.9	0.0696	0.578	–
in vitro model: butyrate, time point: terminal (~4-5 doublings, model-specific)	0.0839	0.943	0.0902	0.593	1.01
in vitro model: cholesterol 0.05 mM, time point: constant (~7 days, model-specific)	0.148	0.693	-0.305	-0.315	–
in vitro model: cholesterol 0.05 mM, time point: terminal (~4-5 doublings, model-specific)	0.166	0.918	-0.286	-1.8	–
in vitro model: cholesterol-high 0.2 mM, time point: constant (~7 days, model-specific)	0.102	0.925	-0.717	0.686	–
in vitro model: cholesterol-high 0.2 mM, time point: terminal (~4-5 doublings, model-specific)	0.121	1	-0.966	0.382	1.42
in vitro model: dormancy (butyrate + nitrate, low O2), time point: constant (~7 days, model-specific)	0.117	0.801	0.434	0.669	–
in vitro model: dormancy (butyrate + nitrate, low O2), time point: terminal (~4-5 doublings, model-specific)	0.1	0.971	-0.188	0.326	0.438
in vitro model: standard 7H9 glycerol, time point: constant = terminal	0.0661	0.911	0.099	0.88	–
in vitro model: valerate, time point: constant (~7 days, model-specific)	0.127	0.91	-0.184	0.573	–
in vitro model: valerate, time point: terminal (~4-5 doublings, model-specific)	0.0732	0.944	-0.0217	0.769	0.881

CC[C@@H](CO)NCCN[C@@H](CC)CO [ethambutol] + NNC(=O)c1ccncc1 [isoniazid] + CO[C@H]1/C=C/O[C@@]2(C)Oc3c(C)c(O)c4c(O)c(c(/C=N/N5CCN(C6CCCC6)CC5)c(O)c4c3C2=O)NC(=O)/C(C)=C\C=C\[C@H](C)[C@H](O)[C@@H](C)[C@@H](O)[C@@H](C)[C@H](OC(C)=O)[C@@H]1C [rifapentine]
Conditions	AUC25, [3]	Einf, [2]	GRinf, [5]	total FIC50, [4]	total FIC90, [1]
in vitro model: acidic pH 5.7, time point: constant (~7 days, model-specific)	0.116	0.926	-0.233	-0.0354	–
in vitro model: acidic pH 5.7, time point: terminal (~4-5 doublings, model-specific)	0.0443	0.974	-0.12	0.316	-0.0587
in vitro model: intracellular J774, time point: constant = terminal	–	0.961	-0.299	–	-1.77

Conditions	AUC25, [3]	Einf, [2]	GRinf, [5]	total FIC50, [4]	total FIC90, [1]
in vitro model: butyrate, time point: constant (~7 days, model-specific)	0.0656	0.919	-0.00839	0.419	–
in vitro model: butyrate, time point: terminal (~4-5 doublings, model-specific)	0.0504	0.961	0.0115	0.431	-0.175
in vitro model: cholesterol 0.05 mM, time point: constant (~7 days, model-specific)	0.0782	0.62	0.0218	0.251	–
in vitro model: cholesterol 0.05 mM, time point: terminal (~4-5 doublings, model-specific)	0.0679	0.705	0.236	0.672	–
in vitro model: cholesterol-high 0.2 mM, time point: constant (~7 days, model-specific)	0.0261	0.963	-0.465	1.28	–
in vitro model: cholesterol-high 0.2 mM, time point: terminal (~4-5 doublings, model-specific)	0.0378	1	-0.581	1.47	1.31
in vitro model: dormancy (butyrate + nitrate, low O2), time point: constant (~7 days, model-specific)	0.123	0.85	0.351	0.273	–
in vitro model: dormancy (butyrate + nitrate, low O2), time point: terminal (~4-5 doublings, model-specific)	0.118	0.99	-0.216	0.00837	0.792
in vitro model: standard 7H9 glycerol, time point: constant = terminal	0.0469	0.904	0.0971	0.347	–
in vitro model: valerate, time point: constant (~7 days, model-specific)	0.0468	0.866	0.0486	0.524	–
in vitro model: valerate, time point: terminal (~4-5 doublings, model-specific)	0.0336	0.929	0.0406	0.609	-0.125
